Measured values taken from patent publication US12616698B2, “Methods for reducing liver fat and for treating fatty liver disorders” (Corcept Therapeutics Incorporated, priority 2021, dated 2026).
“Also recorded” adds a separate entry of the source. Marks after values point to notes of the source that are not given here.

Experiments:
[1] = system: patients presumed to have NASH; assay: Phase 2a study in patients with presumed NASH: liver fat by MRI-PDFF; assay type: in vivo, human
Description: (§1) A Phase 2a, randomized, double-blind, placebo-controlled study (ClinicalTrials.gov Identifier: NCT03823703) was begun to assess the efficacy of two dose levels of miricorilant versus placebo in reducing liver fat in patients who were presumed to have non-alcoholic steatohepatitis (NASH), that presumption based on blood tests and noninvasive measures. Written informed consent was obtained before initiating any study-mandated procedures. The full study was planned to enroll approximately 120 patients, randomized 1:1:1 to receive daily 900 mg miricorilant:600 mg miricorilant: matching placebo.
Patients enrolled in the study were required to have consistent liver enzyme (ALT and AST) baseline measurements (established by two samples obtained at least 4 weeks and no more than six months apart), and a diagnosis of presumed NASH with fibrosis defined as meeting all of the following criteria: • a. Either: i) a historical liver biopsy within 1 year of Screening showing NASH, NAFLD Activity Score (NAS) greater than or equal to 4, and F1 to F3 fibrosis, or ii) an AST level greater than 17 U/L for women or AST level greater than 20 U/L for men AND a FibroScan liver stiffness measurement of greater than or equal to 8.5 kPa and a Controlled Attenuation Parameter (CAP) of greater than or equal to 300 dB/m in the 3 months prior to Screening or at Screening; • b. A MRI-PDFF with greater than or equal to 10% steatosis; and • c. The presence of two or more components of metabolic syndrome: type 2 diabetes treatment or fasting blood glucose greater than or equal to 126 mg/dL, BMI greater than or equal to 30 kg/m^2, hypertension treatment or blood pressure greater than or equal to 130/85, history of dyslipidemia, or waist circumference greater than or equal to 102 cm (40 in) in men and greater than or equal to 88 cm (35 in) in women.
Measures of the effectiveness of miricorilant versus placebo in reducing liver fat were assessed by magnetic resonance imaging (MRI). The change from baseline MRI measurements relative to MRI measurements taken following a course of daily miricorilant or placebo administration were assessed by magnetic resonance imaging-proton density fat fraction (MRI-PDFF). Additionally, effects of miricorilant may be assessed by measuring one or more of the following, either by comparing change from baseline after one or more days of miricorilant administration, or by comparing measurements in patients administered miricorilant versus patients administered placebo: change in liver fat assessed by MRI-PDFF; change in AST, ALT, and gamma-glutamyl transferase (GGT); change in propeptide of type III collagen (pro-C3); change in enhanced liver fibrosis (ELF) score and its components (hyaluronic acid, tissue inhibitor of metalloproteinases-1 [TIMP-1], type III procollagen [PIIINP]); change in ACTH, serum cortisol, and serum aldosterone (pharmacodynamic assessments); change in Homeostatic Model Assessment of Insulin Resistance (HOMA-IR); change in absolute body weight; and other measurements. […] For patients with diabetes, change in HbA1c and change in fasting blood glucose may be measured to assess the effects of miricorilant. Change in blood pressure may be measured in patients with high blood pressure to assess the effects of miricorilant. Pharmacokinetic (PK) parameters were estimated from steady state plasma concentrations of miricorilant.
Patients were randomized in a 1:1:1 ratio to 600 mg miricorilant, 900 mg miricorilant, or placebo. Study drug was administered once daily, orally with 8 oz (240 mL) of water, along with food. Patients were instructed to take a total of 6 tablets at approximately the same time each day. Those in the 600 miricorilant group took 4 miricorilant tablets and 2 placebo tablets. Those in the 900 miricorilant group took 6 miricorilant tablets. Those in the placebo group took 6 placebo tablets. […]

[2] = system: patients presumed to have NASH; assay: Phase 2a study: liver enzymes (ALT, AST), bilirubin, Hy's Law (eDISH plot); assay type: in vivo, human
Description: as §1
Other endpoints monitoring and assessment for safety for all study participants. Safety endpoints included the incidence of TEAEs, AEs, and SAEs; changes from Baseline in clinical laboratory tests (hematology and chemistry panels); changes from Baseline in physical examinations and vital sign measurements; changes from Baseline in ECG parameters.
Liver enzyme levels were measured in the patients.
Bilirubin and liver enzyme levels were measured in the patients at baseline. […] Bilirubin and ALT levels that combined are placed in the upper right quadrant of the graph, labelled “Hy's Law Quadrant”, indicate that the patient is at high risk of severe hepatocellular injury. The cholestasis quadrant is the location on the graph where bilirubin levels are greater than twice the ULN for bilirubin. The “Temple's Corollary” quadrant is the location on the graph where peak ALT levels are greater than 3 times the ULN for ALT, but bilirubin levels are less than twice the ULN for bilirubin.

[3] = one patient, 600 mg per day, MRI-PDFF 26 days after cessation of study drug
[4] = patient 208-4020, 900 mg daily, 30 days on study drug, MRI 19 days after dose ended
[5] = patient 211-4002, 900 mg daily, 31 days on study drug, MRI 64 days after dose ended
[6] = patient 214-4007, 900 mg daily, 44 days on study drug, MRI 16 days after dose ended
[7] = patient 232-4016, 600 mg daily, 39 days on study drug, MRI 26 days after dose ended
[8] = patient 233-4018, 600 mg daily, 34 days on study drug, MRI 21 days after dose ended

## O=c1[nH]c(=O)c(Cc2cccc(C(F)(F)F)c2)c([C@H]2CC[C@H](c3ccccc3)CC2)[nH]1 [miricorilant, (E)-6-(4-Phenylcyclohexyl)-5-(3-trifluoromethylbenzyl)-1H-pyrimidine-2,4-dione]
[1]; 30 or 34 days of treatment, two of five patients administered miricorilant
  Liver fat levels: normalized
[1]; found in four patients (Table 3)
  Liver fat reductions: greater than 30%
[1]; one patient (233-4018, 600 mg) of the four with liver fat decreases
  Resolution of fatty liver (MRI-PDFF <5%): *complete resolution of fatty liver (MRI-PDFF <5%)
[1]; [3]
  MRI PDFF value increase as compared to baseline: 5
  Relative increase in liver fat from baseline: 27.9%
[1]; [4]
  % Change in liver fat: −65.3%
  Change in MRI PDFF: −11.5
[1]; patient 208-4020, 900 mg daily, 30 days on study drug, MRI 19 days after dose ended, screening value 17.6
  MRI PDFF value: 6.1
[1]; patient 208-4020, 900 mg, 30 days on treatment
  Relative change from baseline in % liver fat: −65.3%
[1]; patient 208-4020, 900 mg, 30 days on treatment, baseline 17.6
  Liver fat Follow-up: 6.1%
[1]; [5]
  % Change in liver fat: −38.5%
  Change in MRI PDFF: −10.7
[1]; patient 211-4002, 900 mg daily, 31 days on study drug, MRI 64 days after dose ended, screening value 27.8
  MRI PDFF value: 17.1
[1]; patient 211-4002, 900 mg, 31 days on treatment
  Relative change from baseline in % liver fat: −38.5%
[1]; patient 211-4002, 900 mg, 31 days on treatment, baseline 27.8
  Liver fat Follow-up: 17.1%
[1]; [6]
  % Change in liver fat: −47.0%
  Change in MRI PDFF: −13.3
[1]; patient 214-4007, 900 mg daily, 44 days on study drug, MRI 16 days after dose ended, screening value 28.3
  MRI PDFF value: 15.0
[1]; patient 214-4007, 900 mg, 44 days on treatment
  Relative change from baseline in % liver fat: −47.0%
[1]; patient 214-4007, 900 mg, 44 days on treatment, baseline 28.3
  Liver fat Follow-up: 15.0%
[1]; [7]
  % Change in liver fat: +27.9%
  Change in MRI PDFF: 5.0
[1]; patient 232-4016, 600 mg daily, 39 days on study drug, MRI 26 days after dose ended, screening value 17.9
  MRI PDFF value: 22.9
[1]; [8]
  % Change in liver fat: −73.8%
  Change in MRI PDFF: −9.3
[1]; patient 233-4018, 600 mg daily, 34 days on study drug, MRI 21 days after dose ended, screening value 12.6
  MRI PDFF value: 3.3
[1]; patient 233-4018, 600 mg, 34 days on treatment
  Relative change from baseline in % liver fat: −73.8%
[1]; patient 233-4018, 600 mg, 34 days on treatment, baseline 12.6
  Liver fat Follow-up: 3.3* %
[1]; patient with the greatest reduction, 600 mg daily, baseline 12.6%
  Mean liver fat content after treatment (FIG. 3C): 3.3%
[2]; 600 or 900 mg daily
  Change in ALP or bilirubin levels: No significant change
[2]; 600 or 900 mg daily, eDISH plot FIG. 5
  Hy's Law criteria (total bilirubin >2x ULN and ALT or AST >3x ULN): No patient in this study satisfied the criteria for Hy's Law; also recorded: no patient met Hy's Law criteria
[2]; all patients
  Transaminase elevations upon discontinuation of miricorilant: resolved rapidly
[2]; patient 208-4020, 900 mg, 30 days on treatment, baseline 45
  AST Max: 772 U/L
[2]; patient 208-4020, 900 mg, 30 days on treatment, baseline 69
  ALT Max: 1378 U/L
[2]; patient 211-4002, 900 mg, 31 days on treatment, baseline 32
  AST Max: 113 U/L
[2]; patient 211-4002, 900 mg, 31 days on treatment, baseline 50
  ALT Max: 386 U/L
[2]; patient 214-4007, 900 mg, 44 days on treatment, baseline 30
  AST Max: 376 U/L
[2]; patient 214-4007, 900 mg, 44 days on treatment, baseline 38
  ALT Max: 848 U/L
[2]; patient 233-4018, 600 mg, 34 days on treatment, baseline 26
  AST Max: 391 U/L
[2]; patient 233-4018, 600 mg, 34 days on treatment, baseline 41
  ALT Max: 955 U/L
[2]; patients with presumed NASH, 600 or 900 mg daily for 30-44 days
  Effect on liver enzymes ALT and AST: isolated rise; also recorded: increase
